This is an account of results in patent US20080255121A1, “Combination Drug for Treating Autoimmune Disease” (DAINIPPON SUMITOMO PHARMA CO., LTD., priority 2004, published 2008).

The subject of one assay is L929 cells. Put plainly: Proliferation of fibroblasts stimulated with bFGF (Brd-U uptake). It counts as cell-based, mouse. The following applies: Compound (I) 0.3 to 10 μM, KN-93 1 to 30 μM; FIG. 3. As to the method: Effects of Compound (I) and KN-93 on the proliferation of fibroblasts when the fibroblasts were stimulated with basic fibroblast growth factor (bFGF) were evaluated.
L929 cells (mouse fibroblast cell line) were cultured in MEM-Earl medium (E-MEM: GIBCO, Inc.) containing 10% fetal bovine serum and subjected to the experiment. The cells were suspended in a serum-free E-MEM and disseminated in 96-well plate in a ratio of 2×10^4 cells/well and incubated for 72 hours. An E-MEM medium containing the test substance was added and incubated for 1 hour, and an E-MEM medium containing recombinant human FGF basic (bFGF) as a stimulant was added and incubated for 20 hours. 5-Bromo2′-deoxyuridine (Brd-U) solution was added to each well and incubated at 37° C. for further four hours. The cells were fixed and uptake of Brd-U was detected by Cell proliferation ELISA system (Amersham) and absorbance at 450 nm was measured with a microplate reader. This value of absorbance was used as an index of cell proliferation.

A further assay has as its system human CaMKII γ. Put plainly: Examination of CaMKII inhibitory activity (2). The assay is classed as biochemical. As to the method:
Test substances were dissolved in DMSO and diluted to various concentrations with a buffer solution (50 mM Tris-HCl: pH 7.5, 10 mM MgCl2, 1 mM Dithiothreitol (DTT)) (all of them are available from Nacalai Tesque, Inc.) for CaMKII reaction. CaMKIIα (final concentration 0.75 μg/ml) (Santa Cruz, Inc.) derived from rat was mixed with Autocamtide-2® (40 μM) (CALBIOCHEM Company) dissolved in CaMKII reaction buffer solution in the presence of the test substance and with CaMKII activation buffer solution (1 mMCaCl2, 1 μM calmodulin) (Nacalai Tesque, Inc.) and the reaction was started by further adding ATP (50 μM) (Nacalai Tesque, Inc.). The reaction was performed at 30° C. for five minutes and then SDS-PAGE sample buffer solution was added and the reaction was terminated by boiling for five minutes. Proteins in the reaction mixture were separated by 15% SDS-PAGE and blotted onto a PVDF membrane. Phosphorus taken in by Autocamtide-2 was reacted with an anti-phosphorylated serine/threonine antibody (Santa Cruz, Inc.) and quantified by ECL system (Amersham, Inc.) and NIH Image (downloadable from http://rsb.info.nih.gov/nih-image/).
CaMKII γ gene was prepared by PCR method using two kinds of primers (5′-TC GGATCCAGCATGGCCACCACCGCCACCTG-3′ [SEQ ID NO 4] and 5′-TA GAATTCACACTGCAGCGGTGCGGCAGG [SEQ ID NO 5]) synthesized based on the sequence of GenBank Accession No. L07044 and cDNA derived from cultured cells (JurketT cells) prepared by a conventional method as a template. The CaMKII γ gene was excised by BamHI and EcoRI and introduced into the MCS of pFastBacl transfer vector. Expression virus was prepared and amplified based on this vector. The details followed the manual of Bac-to-Bac baculovirus expression system (Invitrogen, Inc.). Expressed CaMKII γ was purified in accordance with the method described in literature (Biochemical & Biophysical Research Communications, 173(2): 578-84, 1990). That is, expression cells were pulverized by supersonic wave and preparation was performed by affinity refinement with calmodulin sepharose (Amasham Biosciences, Inc.) from cell soluble fraction obtained by centrifugal operation via ammonium sulfate fraction of final concentration of 60%. Confirmation of expression was performed by Western blotting method using anti-CaMKII γ specific antibody, sc1541 (Santa Cruz, Inc.).
CaMKII γ inhibitory activity of test substances were measured in the same conditions as in Example 1 except human CaMKII γ prepared by the above procedure was used in place of CaMKII α derived from rat.

Another assay has as its system EL-4 cells. The assay is described as follows: IL-2 production when T-lymphocytes were stimulated with PMA and A23187. The assay is classed as cell-based, mouse. Conditions: Compound (I) 1 to 30 μM, KN-93 1 to 10 μM; 20 hours; FIG. 1. As to the method:
Effects of Compound (I) and KN-93 on IL-2 production when T-lymphocytes were stimulated with Phorbol 12-myristate 13-acetate (PMA) and Calcium Ionophore A23187 were evaluated.
EL-4 cells (mouse T-lymphocyte cell line) were cultured in Dulbecco's Modified Eagle Medium (DMEM: GIBCO, Inc.) containing 10% fetal bovine serum and subjected to the experiment. The cells were disseminated in 96-well plate in a ratio of 5×10^4 cells/well and a DMEM medium containing the test substance and a DMEM medium containing PMA and A23187 as a stimulant were added and incubated for 20 hours. The concentration was adjusted so that the final concentrations of the test substances and stimulants were 1 to 30 μM for Compound (I), 1 to 10 μM for KN-93, 25 ng/ml for PMA and 250 ng/ml for A23187. The plate was centrifuged after incubation and the supernatant was collected with micropipette. The concentration of IL-2 in the supernatant was quantified by Enzyme-linked Immunosorbent Assay (ELISA) method. The quantitative method was carried out in accordance with the instructions attached to the kit (MOUSE IL-2 Immunoassay, R & D Systems).

The test system of another assay is J774A.1 cells. The assay is described as follows: IL-6 production when macrophages were stimulated with LPS. It counts as cell-based, mouse. Conditions: Compound (I) 1 to 30 μM, KN-93 1 to 3 μM; 24 hours; FIG. 2. As to the method:
Effects of Compound (I) and KN-93 on IL-6 production when macrophages were stimulated with lipopolysaccharide (LPS) were evaluated.
J774A.1 cells (mouse macrophage cell line) were cultured in Dulbecco's Modified Eagle Medium (DMEM: GIBCO, Inc.) containing 10% fetal bovine serum and subjected to the experiment. The cells were disseminated in 96-well plate in a ratio of 5×10^4 cells/well and a DMEM medium containing the test substance and a DMEM medium containing LPS as a stimulant were added and incubated for 24 hours. The concentration was adjusted so that the final concentrations of the test substances and stimulants were 1 to 30 μM for Compound (I), 1 to 3 μM for KN-93 and 1 μg/ml for LPS. The plate was centrifuged after incubation and the supernatant was collected with micropipette. The concentration of IL-6 in the supernatant was quantified by Enzyme-linked Immunosorbent Assay (ELISA) method. The quantitative method was carried out in accordance with the instructions attached to the kit (MOUSE IL-6 Immunoassay, R & D Systems).

Assay [1] has as its system adjuvant-induced arthritis rats. Put plainly: Combination effect on adjuvant-induced arthritis (Example 19). It counts as in vivo, rat. As to the method: Combination effect for rat adjuvant-induced arthritis was examined in the same manner as in Example 17.
The volume of the left hind paw was measured by water replacement method just before the administration and after the last administration, and AUC (the area under the curve formed by plotting the difference of the value at the time of grouping from the value of each time point during the administration period against the time) of the increased volume of the left hind paw was determined. Joint destruction of the right hind paw (injected paw) and the left hind paw (non-injection paw) can be measured by X-ray and this can be also used as the index to evaluate the combination effect.

SMILES strings stand for the structures.

Turning to `C[C@@H](c1ccc(-c2ccccc2)c(F)c1)c1cc(/N=C(/N)N2CCOCC2)on1` [Compound (I), 3-[(1S)-1-(2-fluorobiphenyl-4-yl)ethyl]-5-{[amino(morpholin-4-yl)methylene]amino}isoxazole], in the assay with L929 cells, the proliferation of fibroblasts result is “dose-dependently suppressed the proliferation of fibroblasts”. The “concentration with an effect of inhibiting the activity of CaMKII” value in the assay on human CaMKII γ is ≥ 10 µM. For the same molecule, the “Inhibition rate (%)” value with human CaMKII γ (Concentration 1 μm) stood at 7%; with human CaMKII γ (Concentration 10 μm), 33%; in the assay with human CaMKII γ (Concentration 30 μm), 57%. Further, in the assay on EL-4 cells, the “production of IL-2” value is given as “suppressed production of IL-2 dose-dependently”. The “production of IL-6” value in the assay on J774A.1 cells is recorded as “suppressed production of IL-6 dose-dependently”. The “increased volume and onset ratio of left hind paw” value is “edema suppressing effect” in assay [1] (only Compound (I) 20 mg/kg oral once a day 17 days); “onset suppressing effect and edema suppressing effect” in assay [1] (only Compound (I) 40 mg/kg and 80 mg/kg oral once a day 17 days).

`COc1ccc(S(=O)(=O)N(CCO)c2ccccc2CN(C)C/C=C/c2ccc(Cl)cc2)cc1` [KN-93, N-(2-[N-[4-chlorocinnamyl]-N-methylaminomethyl]phenyl)-N-(2-hydroxyethyl)-4-methoxybenzenesulfonamide, reference compound]: in the assay on L929 cells, the proliferation of fibroblasts result was “dose-dependently suppressed the proliferation of fibroblasts”. The “concentration with an effect of inhibiting the activity of CaMKII” value in the assay on human CaMKII γ was ≥ 1 µM. Also, the “Inhibition rate (%)” value with human CaMKII γ (Concentration 1 μm) is 27%; with human CaMKII γ (Concentration 10 μm), 101%; in the assay with human CaMKII γ (Concentration 30 μm), 107%. For the same molecule, the “production of IL-2” value in the assay with EL-4 cells was “suppressed production of IL-2 dose-dependently”. Besides, the “production of IL-6” value in the assay on J774A.1 cells is “suppressed production of IL-6 dose-dependently”.
